Data: PubChem BioAssay (NCI)
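Exposure lasted 48 hours, with cells grown in 96-well plates and compounds tested at five concentrations. GI50 is the concentration that inhibits growth by half. TGI marks complete inhibition of growth.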

Assays:
Experiment in all cases: NCI tumour cell line growth inhibition, 48 h
786-0 renal = test system: 786-0 renal
SK-OV-3 ovarian = test system: SK-OV-3 ovarian
LOX IMVI melanoma = test system: LOX IMVI melanoma
SNB-19 CNS = test system: SNB-19 CNS
T-47D breast = test system: T-47D breast
CCRF-CEM leukemia = test system: CCRF-CEM leukemia
SK-MEL-2 melanoma = test system: SK-MEL-2 melanoma
UO-31 renal = test system: UO-31 renal
SR leukemia = test system: SR leukemia

N=c1c2c(=S)n(-c3ccccc3)c(=S)n(-c3ccccc3)c2nc(SCCN2CCCC2)n1-c1ccccc1
TGI (786-0 renal): 2 µM
TGI (SK-OV-3 ovarian): 25.3 µM
TGI (LOX IMVI melanoma): 3.46 µM
TGI (SNB-19 CNS): 31.6 µM
TGI (T-47D breast): 8.44 µM
TGI (CCRF-CEM leukemia): 1.25 µM
TGI (SK-MEL-2 melanoma): 13.9 µM

CCN(CC)CCN1C(=O)c2c(c3c4ccccc4[nH]c3c3ccc4ccccc4c23)C1=O
GI50 (SK-OV-3 ovarian): 1.57 µM
TGI (SK-OV-3 ovarian): 3.01 µM
GI50 (UO-31 renal): 1.36 µM
TGI (UO-31 renal): 2.66 µM
GI50 (SNB-19 CNS): 1.5 µM
TGI (SNB-19 CNS): 2.88 µM
GI50 (T-47D breast): 13 µM
TGI (T-47D breast): 38.9 µM
GI50 (SK-MEL-2 melanoma): 2.51 µM
TGI (SK-MEL-2 melanoma): 6.5 µM

COc1cc(OC)c2c3c(OC)cc(OC)c4c(=O)c(O)c(C[C@@H](C)O)c(c5c(C[C@@H](C)O)c(O)c(=O)c1c25)c43
TGI (786-0 renal): 44.8 µM
TGI (SK-OV-3 ovarian): > 100 µM
TGI (UO-31 renal): > 100 µM
TGI (LOX IMVI melanoma): 35.3 µM
TGI (SNB-19 CNS): > 100 µM
TGI (T-47D breast): 44.5 µM
TGI (SK-MEL-2 melanoma): 68 µM

CCOC(=O)NC(OC)(C(F)(F)F)C(F)(F)F
TGI (786-0 renal): > 100 µM
TGI (SK-OV-3 ovarian): > 100 µM
TGI (UO-31 renal): > 100 µM
TGI (SR leukemia): > 100 µM
TGI (LOX IMVI melanoma): > 100 µM
TGI (SNB-19 CNS): > 100 µM
TGI (CCRF-CEM leukemia): > 100 µM

CC(=O)Nc1c(S(=O)(=O)c2ccccc2)c(C)c(C)n1Cc1ccccc1
TGI (786-0 renal): > 100 µM
TGI (SK-OV-3 ovarian): > 100 µM
TGI (UO-31 renal): > 100 µM
TGI (SNB-19 CNS): > 100 µM
TGI (CCRF-CEM leukemia): > 100 µM
TGI (SK-MEL-2 melanoma): > 100 µM

Cc1ccc(C2=C(C#N)C(N)OC3=C2COc2ccccc23)cc1 (stereo not drawn)
TGI (SK-OV-3 ovarian): 67.9 µM
TGI (UO-31 renal): 33.7 µM
TGI (SR leukemia): > 100 µM
TGI (LOX IMVI melanoma): > 100 µM
TGI (SNB-19 CNS): 41.9 µM
TGI (CCRF-CEM leukemia): 76 µM
TGI (SK-MEL-2 melanoma): > 100 µM

COC(=O)c1c(O)ccc2[nH]c3c(O)c4ccccc4cc3c12
TGI (786-0 renal): 95.6 µM
TGI (SK-OV-3 ovarian): 90 µM
TGI (UO-31 renal): 84.9 µM
TGI (SR leukemia): > 100 µM
TGI (SNB-19 CNS): > 100 µM
TGI (T-47D breast): 36.6 µM
TGI (CCRF-CEM leukemia): 63.1 µM
TGI (SK-MEL-2 melanoma): 55 µM

Cc1n[nH]c(=O)n1/N=C\c1ccccc1
TGI (786-0 renal): > 100 µM
TGI (UO-31 renal): > 100 µM
TGI (SR leukemia): > 100 µM
TGI (LOX IMVI melanoma): > 100 µM
TGI (CCRF-CEM leukemia): > 100 µM
TGI (SK-MEL-2 melanoma): > 100 µM

CC(C)(C)OC(=O)CN1CCNCCN(CC(=O)OC(C)(C)C)CCNCC1
TGI (786-0 renal): > 100 µM
TGI (SK-OV-3 ovarian): > 100 µM
TGI (UO-31 renal): > 100 µM
TGI (SR leukemia): > 100 µM
TGI (LOX IMVI melanoma): > 100 µM
TGI (SNB-19 CNS): > 100 µM
TGI (CCRF-CEM leukemia): > 100 µM
TGI (SK-MEL-2 melanoma): > 100 µM

Cc1cc(S(=O)(=O)Nc2nc3ccccc3nc2-c2ccc(Cl)cc2)c(S)cc1Cl
TGI (786-0 renal): 43.5 µM
TGI (SK-OV-3 ovarian): 31.1 µM
TGI (UO-31 renal): 30.1 µM
TGI (SR leukemia): 37.8 µM
TGI (SNB-19 CNS): 37 µM
TGI (T-47D breast): 32.8 µM
TGI (CCRF-CEM leukemia): 58.1 µM
TGI (SK-MEL-2 melanoma): 29.2 µM

COc1ccc(N=NC(=O)NC(CC(C)C)C(N)=O)cc1 (stereo not drawn)
TGI (786-0 renal): > 31.6 µM
TGI (SK-OV-3 ovarian): > 100 µM
TGI (UO-31 renal): > 65.4 µM
TGI (SR leukemia): > 100 µM
TGI (SNB-19 CNS): > 100 µM
TGI (T-47D breast): > 100 µM
TGI (CCRF-CEM leukemia): > 100 µM
TGI (SK-MEL-2 melanoma): > 100 µM

Cc1oc2c(c1C)S(=O)(=O)C(C#N)=C(N(C)C)N2
TGI (786-0 renal): > 100 µM
TGI (SK-OV-3 ovarian): > 100 µM
TGI (UO-31 renal): > 100 µM
TGI (LOX IMVI melanoma): > 100 µM
TGI (SNB-19 CNS): > 100 µM
TGI (T-47D breast): > 100 µM
TGI (SK-MEL-2 melanoma): > 100 µM

COc1ccc(C2C(C#N)=C(S)N(C3OC(COC(C)=O)C(OC(C)=O)C(OC(C)=O)C3OC(C)=O)C(c3ccccc3)=C2C(C)=O)cc1 (stereo not drawn)
TGI (786-0 renal): > 100 µM
TGI (UO-31 renal): 99.5 µM
TGI (LOX IMVI melanoma): > 100 µM
TGI (SNB-19 CNS): > 100 µM
TGI (T-47D breast): 80.1 µM
TGI (CCRF-CEM leukemia): > 100 µM
TGI (SK-MEL-2 melanoma): > 100 µM

CC(O)(P(=O)(O)O)P(=O)(O)OCC(O)CN1CCOCC1 (stereo not drawn)
TGI (786-0 renal): > 100 µM
TGI (SK-OV-3 ovarian): > 100 µM
TGI (UO-31 renal): > 100 µM
TGI (SR leukemia): > 100 µM
TGI (LOX IMVI melanoma): > 100 µM
TGI (SNB-19 CNS): > 100 µM
TGI (CCRF-CEM leukemia): > 100 µM

Cc1cccc(N2C(=O)C3c4[nH]c5ccccc5c4C4CCC(C(C)(C)C)CC4C3C2=O)c1 (stereo not drawn)
TGI (786-0 renal): 12.2 µM
TGI (UO-31 renal): 28.6 µM
TGI (LOX IMVI melanoma): 12.9 µM
TGI (SNB-19 CNS): 26 µM
TGI (T-47D breast): > 100 µM
TGI (CCRF-CEM leukemia): 23.5 µM
TGI (SK-MEL-2 melanoma): 34.4 µM

C/C=C1\CN(C(=O)OC(C)(C)C)C1C(=O)OC(C)(C)C (stereo not drawn)
TGI (786-0 renal): > 100 µM
TGI (SK-OV-3 ovarian): > 100 µM
TGI (UO-31 renal): > 100 µM
TGI (SR leukemia): > 100 µM
TGI (LOX IMVI melanoma): > 100 µM
TGI (SNB-19 CNS): > 100 µM
TGI (CCRF-CEM leukemia): > 100 µM
TGI (SK-MEL-2 melanoma): > 100 µM

CC1CC/C(=C\c2ccc(F)cc2)C(=O)/C1=C/c1ccc(F)cc1 (stereo not drawn)
TGI (786-0 renal): 8.42 µM
TGI (SK-OV-3 ovarian): 36.7 µM
TGI (UO-31 renal): 23.6 µM
TGI (LOX IMVI melanoma): 7 µM
TGI (SNB-19 CNS): 35.5 µM
TGI (T-47D breast): 21 µM
TGI (CCRF-CEM leukemia): 14.5 µM
TGI (SK-MEL-2 melanoma): 25.6 µM

NC1=Nc2cc(Cl)ccc2Sc2nc3ccccc3n21
TGI (786-0 renal): > 100 µM
TGI (SK-OV-3 ovarian): > 100 µM
TGI (UO-31 renal): > 100 µM
TGI (LOX IMVI melanoma): > 100 µM
TGI (SNB-19 CNS): > 100 µM
TGI (T-47D breast): > 100 µM
TGI (CCRF-CEM leukemia): 19.4 µM
TGI (SK-MEL-2 melanoma): > 100 µM

NC(CSSCC(N)=NCC12CC3CC(CC(C3)C1)C2)=NCC12CC3CC(CC(C3)C1)C2
TGI (786-0 renal): > 100 µM
TGI (SK-OV-3 ovarian): 36.5 µM
TGI (UO-31 renal): 46.7 µM
TGI (SNB-19 CNS): 41.5 µM
TGI (T-47D breast): > 100 µM
TGI (SK-MEL-2 melanoma): 55.1 µM

O=C(/C=C(\S/C=C(/c1ccccc1)N1CCn2c(C(=O)c3ccccc3)c(C(=O)c3ccccc3)c(C(=O)c3ccccc3)c21)C(=O)c1ccccc1)c1ccccc1
TGI (786-0 renal): > 10 µM
TGI (SK-OV-3 ovarian): > 10 µM
TGI (SNB-19 CNS): > 10 µM
TGI (T-47D breast): > 10 µM
TGI (CCRF-CEM leukemia): > 10 µM
TGI (SK-MEL-2 melanoma): > 10 µM

CC(=O)Oc1c(N2CCCCC2)c(C(=O)c2ccccc2)c(O)c2ccn(N(C)C)c12
TGI (786-0 renal): 33.8 µM
TGI (SK-OV-3 ovarian): 65.4 µM
TGI (UO-31 renal): 35.4 µM
TGI (LOX IMVI melanoma): 33.1 µM
TGI (SNB-19 CNS): 64.3 µM
TGI (CCRF-CEM leukemia): 76.1 µM
TGI (SK-MEL-2 melanoma): 54.6 µM
